{"source": "paper PMC3748009", "about": "“Novel Small-Molecule AMP-Activated Protein Kinase Allosteric Activator with Beneficial Effects in db/db Mice” (PLoS ONE, 2013)", "key": {"[1]": {"target": "T1, recombinant human AMPK α1β2γ1 (Homo sapiens, UniProt O43741+P54619+Q13131)", "T1 construct": "made in house", "T1 sequence (Q13131 10-559 limits assumed)": "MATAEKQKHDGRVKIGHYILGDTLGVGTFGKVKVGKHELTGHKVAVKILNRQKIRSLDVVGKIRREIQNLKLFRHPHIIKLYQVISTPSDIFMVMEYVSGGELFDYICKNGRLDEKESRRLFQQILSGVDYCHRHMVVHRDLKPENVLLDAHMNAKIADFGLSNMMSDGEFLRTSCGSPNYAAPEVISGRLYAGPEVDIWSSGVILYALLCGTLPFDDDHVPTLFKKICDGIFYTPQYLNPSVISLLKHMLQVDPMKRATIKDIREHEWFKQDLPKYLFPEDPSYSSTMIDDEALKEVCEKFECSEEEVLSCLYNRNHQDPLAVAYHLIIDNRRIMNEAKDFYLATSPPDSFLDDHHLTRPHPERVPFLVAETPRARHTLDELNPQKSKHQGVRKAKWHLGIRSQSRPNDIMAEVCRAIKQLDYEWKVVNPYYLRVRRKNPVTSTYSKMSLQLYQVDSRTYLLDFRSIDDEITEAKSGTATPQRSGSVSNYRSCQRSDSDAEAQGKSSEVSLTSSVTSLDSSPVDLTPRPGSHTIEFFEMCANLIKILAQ", "T1 sequence (O43741 whole entry partner)": "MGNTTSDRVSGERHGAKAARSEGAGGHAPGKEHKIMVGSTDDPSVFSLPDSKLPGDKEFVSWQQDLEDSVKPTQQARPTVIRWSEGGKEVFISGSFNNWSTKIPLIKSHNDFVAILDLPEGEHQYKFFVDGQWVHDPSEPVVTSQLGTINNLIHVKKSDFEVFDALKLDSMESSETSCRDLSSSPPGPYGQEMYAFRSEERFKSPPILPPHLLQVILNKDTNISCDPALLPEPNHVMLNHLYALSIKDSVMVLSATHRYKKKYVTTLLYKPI", "T1 sequence (P54619 whole entry partner)": "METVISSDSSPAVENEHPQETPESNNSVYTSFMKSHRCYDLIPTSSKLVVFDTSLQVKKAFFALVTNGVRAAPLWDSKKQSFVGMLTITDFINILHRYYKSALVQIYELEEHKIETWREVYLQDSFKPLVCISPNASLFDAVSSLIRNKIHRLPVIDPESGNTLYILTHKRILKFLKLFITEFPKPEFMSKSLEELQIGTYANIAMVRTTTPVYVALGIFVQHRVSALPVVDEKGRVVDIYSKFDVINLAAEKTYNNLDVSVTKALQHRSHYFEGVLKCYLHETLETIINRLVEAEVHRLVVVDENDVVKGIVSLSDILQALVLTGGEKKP", "test": "Scintillation proximity assay (SPA), AMPK activation", "type": "biochemical", "procedure": "(§1) Before the SPA assay, 200 nmol/l recombinant AMPK protein (α1β1γ1, α2β1γ1, α1β2γ1, α2β2γ1, α1(1–394), α1(1–335), α1(1–312)) was constructed, expressed, purified and fully phosphorylated as described previously. The SPA reactions were performed in 96-well plates in a final volume of 50 µl containing 20 mmol/l Tris-HCl, pH 7.5, 5 mmol/l MgCl2, 1 mmol/l DTT, 2 µmol/l biotin-SAMS, 2 µmol/l ATP and 7.4×10^3 Bq/well [γ-^33P]ATP. The reactions were initiated by the addition of 50 nmol/l recombinant AMPK protein to the reaction solutions, followed by incubation at 30°C for 2 hr. The reactions were then terminated by the addition of 40 µl of stop solution containing 80 µg streptavidin-coated SPA beads per well, 50 mmol/l EDTA and 0.1% Triton X-100 in PBS, pH 7.5, followed by incubation for 1 hr. Finally, 160 µl of suspension solution containing 2.4 mol/l CsCl, 50 mmol/l EDTA and 0.1% Triton X-100 in PBS, pH 7.5, was added to the reaction solution to suspend the SPA beads completely. The SPA signals were measured in a Wallac Microbeta plate counter (PerkinElmer, Waltham, MA, USA) 30 min later."}, "[2]": {"target": "T2, recombinant human AMPK α2β1γ1 (Homo sapiens, UniProt P54619+P54646)", "T2 construct": "made in house", "T2 sequence (P54646 whole entry)": "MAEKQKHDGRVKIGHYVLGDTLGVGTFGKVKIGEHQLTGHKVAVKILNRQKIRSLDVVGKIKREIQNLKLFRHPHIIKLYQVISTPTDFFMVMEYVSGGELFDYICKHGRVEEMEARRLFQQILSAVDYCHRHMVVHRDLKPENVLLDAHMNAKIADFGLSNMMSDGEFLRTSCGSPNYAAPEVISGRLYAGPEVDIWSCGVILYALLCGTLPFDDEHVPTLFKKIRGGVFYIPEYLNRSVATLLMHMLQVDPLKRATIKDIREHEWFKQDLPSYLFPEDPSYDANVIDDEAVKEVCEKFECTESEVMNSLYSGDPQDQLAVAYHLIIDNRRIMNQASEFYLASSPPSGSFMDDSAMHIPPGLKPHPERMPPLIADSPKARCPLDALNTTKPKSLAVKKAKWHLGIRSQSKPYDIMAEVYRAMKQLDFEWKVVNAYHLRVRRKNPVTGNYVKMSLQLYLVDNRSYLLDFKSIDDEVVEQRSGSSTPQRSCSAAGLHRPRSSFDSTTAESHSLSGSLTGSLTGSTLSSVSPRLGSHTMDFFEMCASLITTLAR", "T2 sequence (Q9Y478 whole entry partner)": "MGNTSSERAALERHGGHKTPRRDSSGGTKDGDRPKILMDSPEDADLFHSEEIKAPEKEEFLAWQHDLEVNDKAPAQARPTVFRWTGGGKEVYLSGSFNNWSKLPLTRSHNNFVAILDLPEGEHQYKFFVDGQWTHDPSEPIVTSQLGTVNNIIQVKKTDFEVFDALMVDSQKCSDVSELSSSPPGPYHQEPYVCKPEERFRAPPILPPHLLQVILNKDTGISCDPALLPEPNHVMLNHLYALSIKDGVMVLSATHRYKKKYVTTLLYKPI", "T2 sequence (P54619 whole entry)": "as the sequence (P54619 whole entry partner) above", "test": "Scintillation proximity assay (SPA), AMPK activation", "type": "biochemical", "procedure": "as §1"}, "[3]": {"target": "T3, recombinant human AMPK α2β2γ1 (Homo sapiens, UniProt O43741+P54619+P54646)", "T3 construct": "made in house", "T3 sequence (P54646 whole entry)": "as the sequence (P54646 whole entry) above", "T3 sequence (O43741 whole entry partner)": "as the sequence (O43741 whole entry partner) above", "T3 sequence (P54619 whole entry partner)": "as the sequence (P54619 whole entry partner) above", "test": "Scintillation proximity assay (SPA), AMPK activation", "type": "biochemical", "procedure": "as §1"}, "[4]": {"target": "T4, recombinant human AMPK α2β2γ1 (Homo sapiens, UniProt P54646)", "T4 construct": "made in house", "T4 sequence (P54646 whole entry)": "as the sequence (P54646 whole entry) above", "T4 sequence (O43741 whole entry partner)": "as the sequence (O43741 whole entry partner) above", "T4 sequence (P54619 whole entry partner)": "as the sequence (P54619 whole entry partner) above", "test": "Scintillation proximity assay (SPA), AMPK activation", "type": "biochemical", "procedure": "as §1"}, "human AMPK α1(1–312)": {"target": "T5, human AMPK α1(1–312) (Homo sapiens, UniProt Q13131)", "T5 construct": "the constitutively active kinase domain (KD) α1(1–312) in SPA assay; made in house", "T5 sequence (Q13131 10-321)": "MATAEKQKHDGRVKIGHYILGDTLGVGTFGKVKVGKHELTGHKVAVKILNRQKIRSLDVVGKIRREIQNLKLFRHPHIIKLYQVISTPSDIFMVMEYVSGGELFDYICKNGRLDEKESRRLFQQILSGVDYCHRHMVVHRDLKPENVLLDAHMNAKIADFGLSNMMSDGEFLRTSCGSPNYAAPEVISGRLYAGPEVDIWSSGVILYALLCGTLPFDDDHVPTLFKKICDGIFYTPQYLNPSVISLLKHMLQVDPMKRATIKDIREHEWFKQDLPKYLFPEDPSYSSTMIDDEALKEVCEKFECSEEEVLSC", "test": "SPA, constitutively active kinase domain", "type": "biochemical", "details": "various concentrations", "procedure": "as §1"}, "AMPK α1β1γ1 [5]": {"target": "T6, AMPK α1β1γ1 (Homo sapiens, UniProt P54619+Q13131+Q9Y478)", "test": "PP2Cα-catalyzed dephosphorylation of AMPK Thr-172", "type": "biochemical", "details": "5 µmol/l ZLN024", "procedure": "(§2) The dephosphorylation of AMPK was performed as described previously, [24]."}, "AMPK α2β1γ1": {"target": "AMPK α2β1γ1 (Homo sapiens, UniProt P54619+P54646+Q9Y478)", "sequence (P54646 whole entry)": "as the sequence (P54646 whole entry) above", "sequence (Q9Y478 whole entry)": "as the sequence (Q9Y478 whole entry partner) above", "sequence (P54619 whole entry)": "as the sequence (P54619 whole entry partner) above", "test": "PP2Cα-catalyzed dephosphorylation of AMPK Thr-172", "type": "biochemical", "details": "5 µmol/l ZLN024", "procedure": "as §2"}, "L6 myotubes [6]": {"system": "L6 myotubes", "test": "Mitochondrial membrane potential in L6 myotubes", "type": "cell-based", "details": "various concentrations, 3 hr, vs DMSO", "excerpt": "(§3) These assays were described previously, [25]."}, "HeLa cells": {"system": "HeLa cells", "test": "AMPK and ACC phosphorylation in HeLa cells deficient in LKB1", "type": "cell-based", "excerpt": "as §3"}, "L6 myotubes [7]": {"system": "L6 myotubes", "test": "Glucose uptake in L6 myotubes", "type": "cell-based", "details": "3 hr, concentration-dependent", "excerpt": "as §3"}, "L6 myotubes [8]": {"system": "L6 myotubes", "test": "Fatty acid (palmitate) oxidation in L6 myotubes", "type": "cell-based", "details": "4 hr treatment", "procedure": "The assay was initiated by adding [9,10-^3H(N)]-palmitic acid (PerkinElmer, Waltham, MA, USA) to a final concentration of 250 µmol/l and 5.55×10^4 Bq per well in DMEM. After incubation with the compound for 4 hr in differentiated L6 myotubes, sample from each well was added to charcoal slurry for centrifugation and then the radioactivity was measured."}, "rat primary hepatocytes [9]": {"system": "rat primary hepatocytes", "test": "AMPK and ACC phosphorylation in rat primary hepatocytes", "type": "cell-based", "details": "3 hr", "excerpt": "as §3"}, "rat primary hepatocytes [10]": {"system": "rat primary hepatocytes", "test": "ADP/ATP ratio in rat primary hepatocytes", "type": "cell-based", "details": "3 hr", "excerpt": "as §3"}, "rat primary hepatocytes [11]": {"system": "rat primary hepatocytes", "test": "Fatty acid synthesis ([14C] acetate incorporation) in rat primary hepatocytes", "type": "cell-based", "details": "insulin 10 nmol/l, 24 hr exposure", "procedure": "Fatty acid synthesis in rat primary hepatocytes was assayed by measuring [^14C] acetate incorporation into lipids. Rat hepatocytes were treated for 20 hr with ZLN024 at the concentrations described in FBS-free DMEM with or without 10 nmol/l insulin, followed by 4 hr incubation in fresh medium containing 0.1 µCi/ml sodium [^14C] acetate (3.7×103 Bq/ml). Thereafter, cells were washed three times by ice-cold PBS and analyzed as previously described, [22]."}, "rat primary hepatocytes [12]": {"system": "rat primary hepatocytes", "test": "Gene expression (real-time PCR) in rat primary hepatocytes", "type": "cell-based", "excerpt": "This assay was described previously. For details on primer sequences, see Legend for Table S1."}, "rat primary hepatocytes [13]": {"system": "rat primary hepatocytes", "test": "Glucose production (output) in rat primary hepatocytes", "type": "cell-based", "details": "5 hr, concentration-dependent", "excerpt": "as §3"}, "AMPK α1β1γ1 [14]": {"target": "T6, AMPK α1β1γ1", "test": "Scintillation proximity assay (SPA), AMPK activation", "type": "biochemical", "parameters": "made in house", "procedure": "as §1"}, "recombinant AMPK α1β1γ1": {"target": "recombinant AMPK α1β1γ1 (Homo sapiens, UniProt Q13131)", "sequence (Q13131 10-559 limits assumed)": "as the sequence (Q13131 10-559 limits assumed) above", "sequence (Q9Y478 whole entry partner)": "as the sequence (Q9Y478 whole entry partner) above", "sequence (P54619 whole entry partner)": "as the sequence (P54619 whole entry partner) above", "test": "Scintillation proximity assay (SPA), AMPK activation", "type": "biochemical", "parameters": "made in house", "procedure": "as §1"}, "AMPK α1(1–335) [15]": {"target": "T7, AMPK α1(1–335) (Homo sapiens, UniProt Q13131)", "T7 sequence (Q13131 10-344)": "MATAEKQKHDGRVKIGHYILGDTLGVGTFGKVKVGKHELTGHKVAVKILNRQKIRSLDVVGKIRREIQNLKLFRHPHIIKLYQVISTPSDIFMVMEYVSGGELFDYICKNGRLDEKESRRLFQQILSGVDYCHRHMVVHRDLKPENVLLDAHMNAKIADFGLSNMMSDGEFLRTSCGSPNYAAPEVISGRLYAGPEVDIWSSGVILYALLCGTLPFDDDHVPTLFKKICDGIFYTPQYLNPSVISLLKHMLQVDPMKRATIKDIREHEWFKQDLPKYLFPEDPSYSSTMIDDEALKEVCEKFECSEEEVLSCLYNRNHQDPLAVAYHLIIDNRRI", "test": "SPA, inactive α1 subunit truncation", "type": "biochemical", "parameters": "α1(1–394), α1(1–335), α1(1–312); made in house", "procedure": "as §1"}, "AMPK α1(1–394) [16]": {"target": "T8, AMPK α1(1–394) (Homo sapiens, UniProt Q13131)", "T8 sequence (Q13131 10-403)": "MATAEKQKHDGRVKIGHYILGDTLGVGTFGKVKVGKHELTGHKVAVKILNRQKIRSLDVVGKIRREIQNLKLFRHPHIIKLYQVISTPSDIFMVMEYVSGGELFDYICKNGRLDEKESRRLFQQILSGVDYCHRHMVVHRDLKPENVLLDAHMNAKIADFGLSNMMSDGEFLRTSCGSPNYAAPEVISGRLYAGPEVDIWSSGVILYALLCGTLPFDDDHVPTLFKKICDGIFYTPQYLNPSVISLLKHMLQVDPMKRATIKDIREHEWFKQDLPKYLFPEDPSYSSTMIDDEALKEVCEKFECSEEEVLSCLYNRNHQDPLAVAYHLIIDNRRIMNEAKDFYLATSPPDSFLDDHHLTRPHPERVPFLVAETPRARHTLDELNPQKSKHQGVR", "test": "SPA, inactive α1 subunit truncation", "type": "biochemical", "parameters": "α1(1–394), α1(1–335), α1(1–312); made in house", "procedure": "as §1"}, "AMPK α1(1–335) [17]": {"target": "T7, AMPK α1(1–335)", "test": "Dephosphorylation of AMPK α1 truncation by PP2Cα", "type": "biochemical", "parameters": "dephosphorylation by PP2Cα on AMPK α1(1–394) and α1(1–335)", "details": "Fig. S1B", "procedure": "as §2"}, "AMPK α1(1–394) [18]": {"target": "T8, AMPK α1(1–394)", "test": "Dephosphorylation of AMPK α1 truncation by PP2Cα", "type": "biochemical", "parameters": "dephosphorylation by PP2Cα on AMPK α1(1–394) and α1(1–335)", "details": "Fig. S1A", "procedure": "as §2"}, "[19]": {"details": "primary hepatocytes, 21 hr incubation"}}, "data": [{"smiles": "Cc1ccc(OCCSc2ncccn2)c(Br)c1", "note": "[ZLN024]", "values": [{"measurement": "EC50", "setting": "[1]", "result": 1100, "unit": "nM"}, {"measurement": "EC50", "setting": "[2]; SPA", "result": 950, "unit": "nM"}, {"measurement": "activation of α2β1γ1 activity", "setting": "[2]; SPA", "result": 1.7, "unit": "fold"}, {"measurement": "additional activation of AMPK α2β1γ1", "setting": "[2]; ZLN024 increased to 10 µmol/l in the presence of saturating AMP (12.5 µmol/l)", "result": 1.3, "unit": "fold"}, {"measurement": "EC50", "setting": "[3]", "result": 130, "unit": "nM"}, {"measurement": "activation of α2β2γ1 activity", "setting": "[4]", "result": 1.6, "unit": "fold"}, {"measurement": "effect on activity of constitutively active kinase domain α1(1–312)", "setting": "human AMPK α1(1–312)", "result": "did not induce significant changes"}, {"measurement": "protection of AMPK α1β1γ1 against dephosphorylation by PP2Cα", "setting": "AMPK α1β1γ1 [5]", "result": "provided protection against dephosphorylation"}, {"measurement": "protection of AMPK α2β1γ1 against dephosphorylation by PP2Cα", "setting": "AMPK α2β1γ1", "result": "provided protection against dephosphorylation"}, {"measurement": "mitochondrial membrane potential (MMP)", "setting": "L6 myotubes [6]", "result": "not affected"}, {"measurement": "phosphorylation of AMPK and ACC", "setting": "HeLa cells; 3 hr, concentration-dependent", "result": "stimulated"}, {"measurement": "time to peak of AMPK and ACC phosphorylation", "setting": "HeLa cells; ZLN024 20 µmol/l", "result": "≤ 30", "unit": "min"}, {"measurement": "time to start of increase of AMPK and ACC phosphorylation", "setting": "HeLa cells; ZLN024 20 µmol/l", "result": "≤ 15", "unit": "min"}, {"measurement": "glucose uptake", "setting": "L6 myotubes [7]", "result": "stimulated"}, {"measurement": "stimulation of palmitate oxidation", "setting": "L6 myotubes [8]", "result": 40, "unit": "%"}, {"measurement": "phosphorylation of ACC", "setting": "rat primary hepatocytes [9]", "result": "obviously increased"}, {"measurement": "phosphorylation of AMPK", "setting": "rat primary hepatocytes [9]", "result": "slightly activated"}, {"measurement": "ADP/ATP ratio", "setting": "rat primary hepatocytes [10]", "result": "not affected"}, {"measurement": "insulin stimulated synthesis of fatty acid", "setting": "rat primary hepatocytes [11]", "result": "significantly decreased"}, {"measurement": "mRNA level of G6Pase", "setting": "rat primary hepatocytes [12]; [19]", "result": "decreased significantly"}, {"measurement": "mRNA level of PEPCK", "setting": "rat primary hepatocytes [12]; [19]", "result": "decreased significantly"}, {"measurement": "gene expression of fatty acid synthase (FAS)", "setting": "rat primary hepatocytes [12]; rat primary hepatocytes, 21 hr", "result": "significantly decreased"}, {"measurement": "glucose production", "setting": "rat primary hepatocytes [13]", "result": "obviously repressed"}, {"measurement": "EC50", "setting": "AMPK α1β1γ1 [14]", "result": 420, "unit": "nM"}, {"measurement": "activation of α1β1γ1 activity", "setting": "recombinant AMPK α1β1γ1", "result": 1.5, "unit": "fold"}, {"measurement": "maximal activation of α1(1–335)", "setting": "AMPK α1(1–335) [15]", "result": 2.8, "unit": "fold"}, {"measurement": "EC50", "setting": "AMPK α1(1–335) [15]; read-out: EC50, activation of α1(1–335)", "result": 2230, "unit": "nM"}, {"measurement": "maximal activation of α1(1–394)", "setting": "AMPK α1(1–394) [16]", "result": 2.3, "unit": "fold"}, {"measurement": "EC50", "setting": "AMPK α1(1–394) [16]; read-out: EC50, activation of α1(1–394)", "result": 920, "unit": "nM"}, {"measurement": "effect on dephosphorylation of AMPK α1(1–335) by PP2Cα", "setting": "AMPK α1(1–335) [17]", "result": "did not affect the dephosphorylation"}, {"measurement": "effect on dephosphorylation of AMPK α1(1–394) by PP2Cα", "setting": "AMPK α1(1–394) [18]", "result": "did not affect the dephosphorylation"}]}]}
